Measured values as given in patent publication US20080200439A1, “Methods and compositions for modulating BK channel activity and vasodilation” (University of Tennessee Research Foundation, priority 2006, published 2008).

Experiments:
[1] = tested on: pressurized resistance cerebral arteries; experiment: Artery diameter measurement, pressurized rat middle cerebral arteries; conditions: 0.8 mM
Experimental: Artery Diameter Measurement. Middle cerebral arteries were isolated from adult male Sprague-Dawley rats (=250 g) or 8- to 12-week-old β1-knockout and C57BL/6 control mice. Rats and mice were decapitated using a guillotine and sharp scissors, respectively. These procedures were approved by the Institutional Animal Care and Use Committee from The University of Tennessee Health Science Center, an AMLAC-accredited institution. Pressurization of arteries was performed as described (Liu et al., 2004). Endothelium was removed by passing an air bubble into the vessel lumen for 90 sec. Diameter changes were monitored through an inverted microscope (Nikon Eclipse TS100, Nikon Corp., Tokyo, Japan), recorded on camera (Sanyo VCB-3512T, Sanyo Electric Corp., Japan), and transferred to a computer. Diameter data were acquired and analyzed using IonWizard 4.4 software (IonOptics Corp., Milton, Mass., United States of America).
Pressurized arteries were extraluminally perfused with physiological saline solution (PSS) (Liu et al., 2004) at a constant rate of 3.75 ml/min using a peristaltic pump Dynamax RP-1 (Rainin Instrument, Inc., Oakland, Calif., United States of America). At this rate, complete washout of the iberiotoxin (Ibtx) effect required >45 min. To keep basal tone under steady behavior, we shortened this period by increasing flow rate ˜3 times during washout of Ibtx, which sometimes evoked a flow-induced dilation (FIG. 1A). Equal volumes (25 ml) of vehicle- vs. LC-containing solutions were applied at equal, constant rate (see above) to the pressurized arterial segment in the chamber via a gravity system. Drugs were dissolved to make stock solutions (see Chemicals) and diluted in PSS to final concentration.
Chemicals. All chemicals were purchased from Sigma (St. Louis, Mo., United States of America), with the exception of 5β-cholanic acid 3α-ol (LC) (Steraloids, Inc., Newport, R.I., United States of America) and Ibtx (Alomone Labs Ltd., Jerusalem, Israel). On the day of the experiment, an LC stock solution (333 mM) in dimethyl sulfoxide (DMSO) was freshly prepared by sonication for 5 min. For arterial tone experiments, the LC stock was diluted 1/10 in DMSO and further diluted in PSS to render final LC concentration. Solution containing vehicle (0.1% DMSO; V/V) was used as control perfusion. For electrophysiological recordings, the LC stock solution was diluted 1/10 in 95% ethanol and further diluted with bath solution to render final LC concentration (3-1,000 μM). The DMSO/ethanol vehicle (≦0.1/≦0.86% final concentrations) in bath solution was used as control.
Data Analysis. Artery diameter response to each compound is shown as a percentage of the diameter obtained before compound application. Arterial diameter and electrophysiological data were analyzed with IonWizard 4.4 (IonOptics Corp., Milton, Mass., United States of America) and pCLAMP 8.0 (Molecular Devices, Union City, Calif., United States of America). Further analysis, plotting, and fitting were conducted using Origin 7.0 (Originlab Corp., Northampton, Mass., United States of America) and InStat 3.0 (GraphPad Software Inc., San Diego, Calif., United States of America).
After myogenic tone development at 60 mm Hg, intact arteries reached a diameter of 154.4±5.2 μm (n=17). Maximal contraction and dilation were checked by perfusing the vessel with 60 mM KCl at the beginning, and Ca^2+-free solution at the end of each experiment (FIGS. 1A & 1B). In all cases (n=17), application of 45 μM LC, that is, concentrations well below LC's critical micellar concentration (CMC) (≧1 mM under our recording conditions) (Roda et al., 1995) caused a significant increase in peak arterial diameter: +6% on top of a transient increase in diameter caused by vehicle-containing solution (FIGS. 1A-1C). […]

BK channels = conditions: cited from earlier work
cbv1+β1 channels = cbv1+β1 channels (UniProt Q16558+Q62976); experiment: Patch-clamp of heteromeric cbv1+β1 channels expressed in Xenopus oocytes; assay type: cell-based, rat; conditions: 10 μM; bath application to extracellular surface of O/O patches
Source text: cRNA Preparation and Injection into Xenopus Oocytes. Full-length cDNA coding for cbv1-subunits was cloned from rat cerebral artery myocytes by PCR and ligated to the PCR-XL-TOPO cloning vector (Invitrogen Corp., Carlsbad, Calif., United States of America) (Jaggar et al., 2005). cDNA coding for cbv1-subunits was cleaved from the cloning vector by BamHI (Invitrogen Corp., Carlsbad, Calif., United States of America) and XhoI (Promega, Madison, Wis., United States of America) and directly inserted into the pOX vector for expression in Xenopus oocytes. pOX-cbv1 was linearized with NotI (Promega, Madison, Wis., United States of America) and transcribed in vitro using T3 polymerase. Beta,-subunit cDNA inserted into the EcoR I/Sal I sites of the pCl-neo expression vector was linearized with NotI and transcribed in vitro using T7 polymerase. Beta4-subunit cDNA inserted into the pOx vector was linearized by NotI and transcribed using T3 polymerase. The mMessage-mMachine kit (Ambion Inc., Austin, Tex., United States of America) was used for transcription. The pOX vector and the cDNA coding for β1-subunits were generous gifts from Aguan Wei (Washington University, Saint Louis, Mo., United States of America) and Maria Garcia (Merck Research Laboratories, Whitehouse Station, N.J., United States of America).
Oocytes were removed from Xenopus laevis and prepared as described (Dopico et al., 1998). cRNA was dissolved in […] at 5 (cbv1) and 15 (β1 or β4) ng/μl; 1-μl aliquots were stored at −70° C. Cbv1 cRNA was injected alone (2.5 ng/μp) or coinjected with either β1 or β4 (7.5 ng/μl) cRNAs, giving molar ratios ≧6:1 (β:α). cRNA injection (23 nl/oocyte) was conducted using a modified micropipette (Drummond Scientific Co., Broomall, Pa., United States of America). The interval between injection and patch-clamp recordings was 48-72 h.
Electrophysiology. Oocytes were prepared for patch-clamp recordings as described (Dopico et al., 1998). Single-channel and macroscopic currents were recorded from inside-out (I/O) or outside-out (O/O) patches. For experiments with oocytes, both bath and electrode solutions contained (mM) 135 K^+ gluconate, 5 EGTA, 1 MgCl2, 15 HEPES, 10 glucose, pH 7.35. For experiments with myocytes, KCl substituted for K^+ gluconate. In all experiments, free Ca^2+ in solution was adjusted to the desired value by adding CaCl2. In most studies, free Ca^2+ in electrode solution=10 μM. In O/O studies with 17β-estradiol, however, free Ca^2+ in the electrode solution=0.3 μM. Nominal free Ca^2+ was calculated with MaxChelator Sliders (C. Patton, Stanford University, California, United States of America) and validated experimentally using Ca^2+-selective electrodes (Corning Incorporated Science Products Division, Corning, N.Y., United States of America).
Patch-recording electrodes were made as described (Dopico et al., 1998). Immediately before recording, the tip of each electrode was fire-polished on a microforge WPI MF-200 (World Precision Instruments, Inc., Sarasota, Fla., United States of America) to give resistances of 5-9 MD when filled with solution. An agar bridge with gluconate or Cl^− as the main anion (for oocyte and myocyte experiments, respectively) was used as ground electrode. After excision from the cell, the membrane patch was exposed to a stream of bath solution containing each agent at final concentration. Solutions were applied onto the patches using a pressurized system DAD12 (ALA Scientific Instruments, New York, N.Y., United States of America) via a micropipette tip with an internal diameter of 100 μm. Experiments were carried out at room temperature (21° C.).
Currents were recorded using an EPC8 amplifier (HEKA Electronics, Lambrecht/Pfalz, Germany) at 1 kHz using a low-pass, eight-pole Bessel filter 902LPF (Frequency Devices, Haverhill, Mass., United States of America). […]

Sequence of cbv1+β1 channels (Q62976 1-1148 isoform Q62976-2): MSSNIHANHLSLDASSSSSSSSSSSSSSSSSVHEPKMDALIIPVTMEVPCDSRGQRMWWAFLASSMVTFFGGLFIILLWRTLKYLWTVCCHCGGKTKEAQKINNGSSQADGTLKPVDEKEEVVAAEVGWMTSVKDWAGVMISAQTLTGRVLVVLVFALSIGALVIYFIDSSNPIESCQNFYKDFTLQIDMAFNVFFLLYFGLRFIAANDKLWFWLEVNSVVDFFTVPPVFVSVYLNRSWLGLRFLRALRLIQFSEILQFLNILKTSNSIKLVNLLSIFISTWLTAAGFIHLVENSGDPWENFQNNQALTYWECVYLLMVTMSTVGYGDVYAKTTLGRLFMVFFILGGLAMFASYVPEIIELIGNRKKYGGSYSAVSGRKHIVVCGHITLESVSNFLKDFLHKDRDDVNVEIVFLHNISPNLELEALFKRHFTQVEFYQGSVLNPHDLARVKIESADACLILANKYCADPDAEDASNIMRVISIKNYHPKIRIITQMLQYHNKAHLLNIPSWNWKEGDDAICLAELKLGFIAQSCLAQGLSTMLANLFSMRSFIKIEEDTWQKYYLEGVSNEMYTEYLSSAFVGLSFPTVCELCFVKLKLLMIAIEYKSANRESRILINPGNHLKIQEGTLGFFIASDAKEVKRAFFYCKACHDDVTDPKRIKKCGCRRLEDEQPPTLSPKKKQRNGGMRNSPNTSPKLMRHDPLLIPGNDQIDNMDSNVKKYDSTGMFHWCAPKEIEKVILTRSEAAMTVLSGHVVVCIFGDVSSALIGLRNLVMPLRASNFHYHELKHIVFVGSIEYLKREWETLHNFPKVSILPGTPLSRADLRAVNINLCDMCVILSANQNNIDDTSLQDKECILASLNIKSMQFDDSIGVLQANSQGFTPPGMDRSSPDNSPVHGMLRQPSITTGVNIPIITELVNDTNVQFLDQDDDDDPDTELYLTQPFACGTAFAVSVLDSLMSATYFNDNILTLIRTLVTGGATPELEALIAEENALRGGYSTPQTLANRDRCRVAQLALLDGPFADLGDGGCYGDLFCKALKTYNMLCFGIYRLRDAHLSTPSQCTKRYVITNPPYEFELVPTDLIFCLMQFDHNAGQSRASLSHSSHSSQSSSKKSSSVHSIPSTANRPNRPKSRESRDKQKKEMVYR
Sequence of cbv1+β1 channels (Q16558 whole entry): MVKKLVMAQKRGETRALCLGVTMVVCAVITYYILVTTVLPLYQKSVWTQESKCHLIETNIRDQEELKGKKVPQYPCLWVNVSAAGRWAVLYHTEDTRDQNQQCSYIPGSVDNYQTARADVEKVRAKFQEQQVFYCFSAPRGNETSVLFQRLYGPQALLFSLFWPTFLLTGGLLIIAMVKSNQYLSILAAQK

Nc1ccncc1 [4-AP, 4-aminopyridine, reference compound]
Decrease in diameter [1]: −9.7±2.3%

C[C@]12CC[C@@H]3c4ccc(O)cc4CC[C@H]3[C@@H]1CC[C@@H]2O [17β-estradiol]
Concentrations modulating BK activity through the channel α-subunit (BK channels; Korovkina et al., 2004): 0.01 to 1 µM
Concentrations increasing BK (hslo) channel activity by interacting with the β1-subunit (BK channels; Valverde et al., 1999): 1 to 30 µM
Effect on channel activity (cbv1+β1 channels): channel activation

CC/C(=C(\c1ccccc1)c1ccc(OCCN(C)C)cc1)c1ccccc1 [tamoxifen, Tamoxifen]
Concentrations decreasing unitary current amplitude (as low as) (BK channels; Duncan, 2005): 1 to 10 µM
